According to patent publication US20240409557A1, “5,6-FUSED AND 6,6-FUSED BICYCLIC ALCOHOLS AND ETHERS AND COMPOSITIONS FOR USE AS 15-PROSTAGLANDIN DEHYDROGENASE MODULATORS” (AMGEN INC., priority 2023, published 2024):

Key:
15-PGDH in A549 cells = target: T1, 15-PGDH in A549 cells (Homo sapiens, UniProt P15428); assay: A549 cellular 15-PGDH assay (PGE2 accumulation, HTRF); assay type: cell-based; conditions: interleukin-stimulated, inhibitor 24 hrs, PGE2 by competitive HTRF, read-out: A549 Cell Assay IC50
T1 construct: endogenous in cells; host or cells: A549
T1 sequence (P15428 1-266): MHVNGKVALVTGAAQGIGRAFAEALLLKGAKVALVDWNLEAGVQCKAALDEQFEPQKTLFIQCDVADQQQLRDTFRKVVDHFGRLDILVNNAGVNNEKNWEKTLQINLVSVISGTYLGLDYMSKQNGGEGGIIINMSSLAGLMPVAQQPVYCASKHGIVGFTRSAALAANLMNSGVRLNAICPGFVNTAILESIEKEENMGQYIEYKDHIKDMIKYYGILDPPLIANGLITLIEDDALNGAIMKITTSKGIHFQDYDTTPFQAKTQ
From the text: This assay was used for the quantification of IL-13 induced Native Prostaglandin E2 (PGE2) produced by A549 cells (epithelial cells from lung carcinoma) in cell culture supernatants. […] PGE2 was detected in a competitive HTRF assay by using anti PGE2 antibody labeled with Europium cryptate, and PGE2 labeled with […]. The PGE2 present in the sample competes with the binding between the two HTRF detection solutions (reagents) and thereby prevents FRET from occurring. The specific signal is inversely proportional to the PGE2 concentration. From this binding data, IC50 values were calculated.

[1] = target: T2, human recombinant 15-PGDH (Homo sapiens, UniProt P15428); assay: Recombinant 15-PGDH enzymatic inhibition assay (PGDH-Lumi, NADH signal); assay type: biochemical; conditions: recombinant 15-PGDH; 15 min pre-incubation, 60 min reaction with PGE2 and NAD+, NADH signal
T2 sequence (P15428 1-266): T1 sequence (P15428 1-266)
Method in brief: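 Recombinant 15-PGDH pre-incubated 15 min at room temperature with compound (22 concentrations, 2-fold dilutions) in 50 mM Tris pH 7.5, 0.01% Tween-20, […].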

SMILES | IC50 (15-PGDH in A549 cells) | IC50 [1]
Cn1cnc(-c2ccc3cc([C@H](O)C4CC(F)(F)C4)sc3n2)cc1=O (single isomer, unassigned) [Compound B49R] | 0.723 nM | 0.26 nM
Cn1cc2cc(-c3ccc4cc([C@@H](O)C5COC5)sc4n3)cnc2n1 (single isomer, unassigned) [Compound B28S] | 9.56 nM | 12.2 nM
Cn1cc2cc(-c3ncc4sc([C@]5(O)C[C@@H](C(F)F)C5)cc4n3)cnc2n1 [Compound C89C, cis-3-(difluoromethyl)-1-(2-(2-methyl-2H-pyrazolo[3,4-b]pyridin-5-yl)thieno[3,2-d]pyrimidin-6-yl)cyclobutanol] | 49.1 nM | 33.8 nM
Cn1cc2cc(-c3ccc4nc([C@]5(O)C[C@@H](OC(F)(F)F)C5)sc4n3)cnc2n1 [Compound C105C, cis-1-(5-(2-methyl-2H-pyrazolo[3,4-b]pyridin-5-yl)[1,3]thiazolo[5,4-b]pyridin-2-yl)-3-(trifluoromethoxy)cyclobutanol] | 0.788 nM | 0.294 nM
CO[C@]1(C)C[C@](O)(c2cc3ccc(-c4cnc5nn(C)cc5c4)nc3s2)C1 (single isomer, unassigned) [Compound C59T, trans-3-methoxy-3-methyl-1-(6-(2-methyl-2H-pyrazolo[3,4-b]pyridin-5-yl)thieno[2,3-b]pyridin-2-yl)cyclobutanol] | 0.16 nM | 0.727 nM
Cn1cc2cc(-c3ccc4cc(C5(O)CC6(COC6)C5)sc4n3)cnc2n1 [Compound C28] | 0.452 nM | 0.472 nM
Cc1c([C@H](O)C2CCOCC2)sc2nc(-c3cnc4c(c3)nnn4C)ccc12 (single isomer, unassigned) [Compound B89R] | 4.82 nM | 1.77 nM
Cc1nc2cc(-c3ccc4cc([C@]5(O)C[C@@H](C(F)F)C5)sc4n3)cnc2[nH]1 [Compound C93C, cis-3-(difluoromethyl)-1-(6-(2-methyl-3H-imidazo[4,5-b]pyridin-6-yl)thieno[2,3-b]pyridin-2-yl)cyclobutanol] | 1.96 nM | 0.587 nM
C[C@H](O)c1cc2c(-c3ccnn3C)cc(-c3cnc4nn(C)cc4c3)nc2s1 (single isomer, unassigned) [Compound B6S] | 102 nM | 89.6 nM
CCC(O)c1cc2ccc(-c3cnc4nn(C)cc4c3)nc2s1 (centres unmarked) [Compound B22, 1-(6-(2-methyl-2H-pyrazolo[3,4-b]pyridin-5-yl)thieno[2,3-b]pyridin-2-yl)-1-propanol] | 1.29 nM | 0.513 nM
Cn1cc2cc(-c3ncc4nc([C@]5(O)C[C@@H](C(F)F)C5)sc4n3)cnc2n1 [Compound C109C] | 8.48 nM | 3.35 nM
O[C@H](c1cc2ccc(-c3ccc4nccnc4c3)nc2s1)C1CC(F)(F)C1 (single isomer, unassigned) [Compound B52S] | 11.7 nM | 1.6 nM
Cn1cc2cc(-c3ccc4sc([C@]5(O)C[C@@](C)(C#N)C5)cc4n3)cnc2n1 (single isomer, unassigned) [Compound C106C, cis-3-hydroxy-1-methyl-3-(5-(2-methyl-2H-pyrazolo[3,4-b]pyridin-5-yl)thieno[3,2-b]pyridin-2-yl)cyclobutanecarbonitrile] | 29.4 nM | 16.7 nM
Cn1nnc2cc(-c3ccc4cc([C@]5(O)C[C@@](C)(C#N)C5)sc4n3)cnc21 (single isomer, unassigned) [Compound C104C, cis-3-hydroxy-1-methyl-3-(6-(3-methyl-3H-[1,2,3]triazolo[4,5-b]pyridin-6-yl)thieno[2,3-b]pyridin-2-yl)cyclobutanecarbonitrile] | 11.3 nM | 3.88 nM
Cn1nnc2cc(-c3ccc4cc([C@]5(O)C[C@@H](OC(F)(F)F)C5)sc4n3)cnc21 [Compound C101C, cis-1-(6-(3-methyl-3H-[1,2,3]triazolo[4,5-b]pyridin-6-yl)thieno[2,3-b]pyridin-2-yl)-3-(trifluoromethoxy)cyclobutanol] | 0.847 nM | 0.496 nM
Cn1cc2cc(-c3ccc4cc([C@]5(O)C[C@@H](F)C5)sc4n3)cnc2n1 [Compound C40C, cis-3-fluoro-1-(6-(2-methyl-2H-pyrazolo[3,4-b]pyridin-5-yl)thieno[2,3-b]pyridin-2-yl)cyclobutanol] | 1.22 nM | 0.742 nM
Cn1cc2cc(-c3ccc4cc([C@H](O)C5CC(F)(F)C5)ccc4n3)cnc2n1 (single isomer, unassigned) [Compound D7R] | 61.8 nM | 24.7 nM

SMILES | IC50 (15-PGDH in A549 cells) | IC50 [1]
COCC[C@@H](O)c1cc2ccc(-c3cnc4nn(C)cc4c3)cc2s1 (single isomer, unassigned) [Compound B59R] | 7.79 nM | 4.75 nM
Cn1nnc2cc(-c3ccc4cc([C@]5(O)C[C@](C)(C#N)C5)sc4n3)cnc21 (single isomer, unassigned) [Compound C104T, trans-3-hydroxy-1-methyl-3-(6-(3-methyl-3H-[1,2,3]triazolo[4,5-b]pyridin-6-yl)thieno[2,3-b]pyridin-2-yl)cyclobutanecarbonitrile] | 1.44 nM | 0.515 nM
COC[C@H]1C[C@](O)(c2cc3cnc(-c4cnc5nn(C)cc5c4)nc3s2)C1 [Compound C119C, cis-3-(methoxymethyl)-1-(2-(2-methyl-2H-pyrazolo[3,4-b]pyridin-5-yl)thieno[2,3-d]pyrimidin-6-yl)cyclobutanol] | 6.66 nM | 2.8 nM
Cn1cc2cc(-c3ccc4sc([C@H](O)C5CC(F)(F)C5)nc4n3)cnc2n1 (single isomer, unassigned) [Compound B74R] | 0.494 nM | 4.76 nM
COCC[C@@H](O)c1cc2ccc(-c3cnc4nn(C)cc4c3)nc2s1 (single isomer, unassigned) [Compound B29R] | 0.745 nM | 0.209 nM
Cn1cc2cc(-c3ccc4cc([C@]5(O)C[C@H](F)C5)sc4n3)cnc2n1 [Compound C40T, trans-3-fluoro-1-(6-(2-methyl-2H-pyrazolo[3,4-b]pyridin-5-yl)thieno[2,3-b]pyridin-2-yl)cyclobutanol] | 3.36 nM | 6.58 nM
Cn1cnc2cc(-c3ccc4cc(C5(O)CC(F)(F)C5)sc4n3)cnc21 [Compound C33, 3,3-difluoro-1-(6-(3-methyl-3H-imidazo[4,5-b]pyridin-6-yl)thieno[2,3-b]pyridin-2-yl)cyclobutanol] | 1.08 nM | 2.55 nM
Cn1cc2cc(-c3ccc4sc([C@H](O)C5CC(F)(F)C5)cc4n3)cnc2n1 (single isomer, unassigned) [Compound B73R] | 0.061 nM | 0.412 nM
Cn1nnc2cc(-c3ncc4cc([C@]5(O)C[C@@](C)(C#N)C5)sc4n3)cnc21 (single isomer, unassigned) [Compound C98C, cis-3-hydroxy-1-methyl-3-(2-(3-methyl-3H-[1,2,3]triazolo[4,5-b]pyridin-6-yl)thieno[2,3-d]pyrimidin-6-yl)cyclobutanecarbonitrile] | 18.7 nM | 8.69 nM
CO[C@]1(C(F)(F)F)C[C@@](O)(c2cc3cnc(-c4cnc5nn(C)cc5c4)nc3s2)C1 (single isomer, unassigned) [Compound C113C, cis-3-methoxy-1-(2-(2-methyl-2H-pyrazolo[3,4-b]pyridin-5-yl)thieno[2,3-d]pyrimidin-6-yl)-3-(trifluoromethyl)cyclobutanol] | 7.19 nM | 1.42 nM
Cc1c([C@@H](O)C2CCOCC2)sc2nc(-c3cnc4c(c3)nnn4C)ccc12 (single isomer, unassigned) [Compound B89S] | 375 nM | 922 nM
OC1(c2cc3ccc(-c4cnc5nccnc5c4)nc3s2)CC(F)(F)C1 [Compound C47, 3,3-difluoro-1-(6-(pyrido[2,3-b]pyrazin-7-yl)thieno[2,3-b]pyridin-2-yl)cyclobutanol] | 0.373 nM | 0.996 nM
Cn1cc2cc(-c3ccc4sc([C@@H](O)C5CC(F)(F)C5)cc4n3)cnc2n1 (single isomer, unassigned) [Compound B73S] | 0.863 nM | 0.791 nM
Cn1cc2cc(-c3ncc4cc([C@@H](O)C5CC(F)(F)C5)sc4n3)cnc2n1 (single isomer, unassigned) [Compound B75S] | 12.5 nM | 25.4 nM
[2H][C@](O)(c1cc2ccc(-c3cnc4nn(C)cc4c3)nc2s1)C1CC(F)(F)C1 (single isomer, unassigned) [Compound B79R] | 0.0094 nM | 0.399 nM
Cn1cc2cc(-c3ccc4cc([C@]5(O)C[C@@]6(CCO6)C5)sc4n3)cnc2n1 (single isomer, unassigned) [Compound C56T, trans-6-(6-(2-methyl-2H-pyrazolo[3,4-b]pyridin-5-yl)thieno[2,3-b]pyridin-2-yl)-1-oxaspiro[3.3]heptan-6-ol] | 0.997 nM | 1.18 nM
CC(C)n1cc2cc(-c3ccc4cc([C@H](O)C5CC(F)(F)C5)sc4n3)cnc2n1 (single isomer, unassigned) [Compound B64R] | 0.311 nM | 0.325 nM
